Assay results from PubChem BioAssay (NCI).
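96-well plates; 48 h exposure; 5 concentrations. Endpoints by linear interpolation between flanking doses. Not reached: highest tested concentration assigned. GI50 marks 50% less growth. TGI marks complete inhibition of growth.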

Experiments:
Assay in all cases: NCI-60 cell line screen, 48 h
CCRF-CEM leukemia = tested on: CCRF-CEM leukemia
HL-60(TB) leukemia = tested on: HL-60(TB) leukemia
HOP-62 NSCLC = tested on: HOP-62 NSCLC
LOX IMVI melanoma = tested on: LOX IMVI melanoma
M14 melanoma = tested on: M14 melanoma
MOLT-4 leukemia = tested on: MOLT-4 leukemia
NCI/ADR-RES ovarian = tested on: NCI/ADR-RES ovarian
RPMI-8226 leukemia = tested on: RPMI-8226 leukemia
U251 CNS = tested on: U251 CNS
EKVX NSCLC = tested on: EKVX NSCLC

Row | SMILES | GI50 (CCRF-CEM leukemia) [µM] | TGI (CCRF-CEM leukemia) [µM] | GI50 (HL-60(TB) leukemia) [µM] | TGI (HL-60(TB) leukemia) [µM] | GI50 (HOP-62 NSCLC) [µM] | TGI (HOP-62 NSCLC) [µM] | GI50 (LOX IMVI melanoma) [µM] | TGI (LOX IMVI melanoma) [µM] | GI50 (M14 melanoma) [µM] | TGI (M14 melanoma) [µM] | GI50 (MOLT-4 leukemia) [µM] | TGI (MOLT-4 leukemia) [µM] | GI50 (NCI/ADR-RES ovarian) [µM] | TGI (NCI/ADR-RES ovarian) [µM] | GI50 (RPMI-8226 leukemia) [µM] | TGI (RPMI-8226 leukemia) [µM] | GI50 (U251 CNS) [µM] | TGI (U251 CNS) [µM] | GI50 (EKVX NSCLC) [µM] | TGI (EKVX NSCLC) [µM]
1 | O=C1NC(=N[C@H](CO)c2ccccc2)S/C1=C\c1ccc2ncccc2c1 | 4.63 | 16.7 | 4.19 | 16.7 | 6.73 | > 25 | 2.41 | 22 | 7.46 | > 25 | 4.47 | 14.8 | > 19.3 | > 25 | 3.73 | 10.9 | 1.96 | > 19.8 |  | 
2 | CN1CCN(c2ccc(Nc3ncc4cc5n(c4n3)C3(CCCCC3)CNC5=O)nc2)CC1 | 0.203 | 3.6 | 0.0651 | 3.04 | 1.06 | 12.8 | 0.589 | 10.4 | 1.76 | 11.7 | 0.279 | 3.58 | 5.77 | 26 | 0.0624 | 4.04 | 1.32 | 28.2 | 2.14 | 14.1
3 | C[C@H](c1ccccc1)N(CCC(=O)O)C(=O)CCN(C(=O)CCN(C(=O)CCN[C@H](C)c1ccccc1)[C@H](C)c1ccccc1)[C@H](C)c1ccccc1 | > 100 | > 100 | > 100 | > 100 | > 100 | > 100 | > 100 | > 100 | > 100 | > 100 | > 100 | > 100 | > 100 | > 100 | 58.4 | > 100 | > 100 | > 100 | > 100 | > 100
4 | CCN1C(=O)N(CC)C2C1NN=c1s/c(=C\c3ccc(OC)cc3)c(=O)n12 (stereo unspecified) | 0.304 | > 100 | 0.174 | 0.477 | 0.381 | > 59.4 | 0.233 | > 100 | 0.172 | > 100 | 0.378 | > 100 | 0.0744 | > 100 | 0.353 | > 100 | 0.244 | > 100 | 0.44 | > 100
5 | N#Cc1c(N)c(C#N)c2c(c1-c1ccc(Cl)cc1)COc1ccc(F)cc1-2 | > 50 | > 50 | > 50 | > 50 |  |  | 43.9 | > 50 | 16.7 | > 50 | > 50 | > 50 | 30.6 | > 50 | 19 | > 50 | 22 | > 50 | 12.4 | > 50
6 | Oc1cccc(-c2nc(-c3ccccc3)[nH]c2-c2ccncc2)c1 | 17.1 | > 25 | 7.77 | 19.4 | 16.8 | > 25 | 8.82 | > 25 | 1.71 | 12.6 | 24.9 | > 25 | > 25 | > 25 | 13.5 | > 25 | 17.1 | > 25 | > 25 | > 25
